# Patent publication US8980899B2, “Methods of inhibiting Ire1” (The Regents of the University of California, priority 2009, dated 2015)
# pKi: −log10 of the molar value.
# How the values were obtained:
# [1] = target: Recombinant human Ire1-alpha (Homo sapiens, UniProt O75460); assay: In vitro inhibition assay, cleavage of 32P-stem-loop RNA by human Ire1; format: biochemical; set-up: Ire1 activity with human Ire1 alpha: unit not given here; details: for Ire1 activity with human Ire1 alpha: RNA cleavage, 1 μM Ire1, 32P-labeled RNA, 30° C., Control (no inhibitor) 0.085; for Ire1 activity: in vitro cleavage of 32P-stem-loop RNA by human Ire1, AD series, Control (no inhibitor) 8.8310e−3
# Chain of Recombinant human Ire1-alpha (O75460 19-977): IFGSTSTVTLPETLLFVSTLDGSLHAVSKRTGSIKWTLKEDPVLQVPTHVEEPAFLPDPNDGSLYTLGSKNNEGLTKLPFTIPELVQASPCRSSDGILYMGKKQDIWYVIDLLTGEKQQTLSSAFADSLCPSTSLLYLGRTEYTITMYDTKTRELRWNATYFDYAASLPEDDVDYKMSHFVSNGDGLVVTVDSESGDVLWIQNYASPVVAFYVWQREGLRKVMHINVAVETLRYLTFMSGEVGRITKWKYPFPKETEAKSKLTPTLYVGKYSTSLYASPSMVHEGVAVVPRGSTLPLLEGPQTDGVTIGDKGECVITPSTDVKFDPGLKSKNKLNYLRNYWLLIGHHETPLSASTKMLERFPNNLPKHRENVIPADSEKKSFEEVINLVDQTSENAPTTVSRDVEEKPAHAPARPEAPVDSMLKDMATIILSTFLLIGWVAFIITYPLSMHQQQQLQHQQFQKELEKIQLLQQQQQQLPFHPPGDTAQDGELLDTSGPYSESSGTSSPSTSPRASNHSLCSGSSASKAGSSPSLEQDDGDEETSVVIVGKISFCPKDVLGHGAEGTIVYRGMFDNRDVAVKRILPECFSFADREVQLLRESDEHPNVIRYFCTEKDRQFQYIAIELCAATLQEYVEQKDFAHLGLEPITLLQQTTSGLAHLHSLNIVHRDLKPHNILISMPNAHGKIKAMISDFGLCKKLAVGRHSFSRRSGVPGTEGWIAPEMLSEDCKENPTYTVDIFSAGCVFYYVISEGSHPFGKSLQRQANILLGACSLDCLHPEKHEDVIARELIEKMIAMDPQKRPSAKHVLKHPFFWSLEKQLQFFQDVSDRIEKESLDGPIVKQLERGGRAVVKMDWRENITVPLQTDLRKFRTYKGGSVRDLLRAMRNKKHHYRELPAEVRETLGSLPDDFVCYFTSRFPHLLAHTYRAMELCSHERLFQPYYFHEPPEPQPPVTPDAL
# Description: Recombinant human […]) was mixed with reaction buffer, inhibitor solution in DMSO, and ^32P-labeled RNA substrate having sequence 5'-[…] NO:1). Reactions were conducted at 30° C. and initiated by adding the RNA to reaction pre-mix containing all the components minus the RNA. […] (The reaction mixture may be modified by using different components or concentrations, different RNA substrate, or different Ire1 protein construct.) At time intervals (0 seconds, 10 seconds, 30 seconds, and 3 minutes), 1 μl aliquots of reaction mixture were taken and quenched in 10 M Urea, 0.1% SDS. Samples were analyzed by denaturing polyacrylamide gel electrophoresis and quantified using Typhoon phosphorImager. […] Reactions with Irestatin and exemplary compounds were conducted analogously. Irestatin was a gift obtained from the SPECS screen available as 5 mM solution in DMSO at UCSF small molecule discovery center.
# yeast Ire1 = target: T1, yeast Ire1 (Saccharomyces cerevisiae, UniProt P32361); assay: In vitro inhibition assay, cleavage of 32P-labeled RNA by yeast Ire1; format: biochemical; details: for Ire1 activity with yeast Ire1: RNA cleavage, 32P-labeled RNA, 30° C., Control (no inhibitor) 0.1149
# T1 sequence (P32361 19-1115): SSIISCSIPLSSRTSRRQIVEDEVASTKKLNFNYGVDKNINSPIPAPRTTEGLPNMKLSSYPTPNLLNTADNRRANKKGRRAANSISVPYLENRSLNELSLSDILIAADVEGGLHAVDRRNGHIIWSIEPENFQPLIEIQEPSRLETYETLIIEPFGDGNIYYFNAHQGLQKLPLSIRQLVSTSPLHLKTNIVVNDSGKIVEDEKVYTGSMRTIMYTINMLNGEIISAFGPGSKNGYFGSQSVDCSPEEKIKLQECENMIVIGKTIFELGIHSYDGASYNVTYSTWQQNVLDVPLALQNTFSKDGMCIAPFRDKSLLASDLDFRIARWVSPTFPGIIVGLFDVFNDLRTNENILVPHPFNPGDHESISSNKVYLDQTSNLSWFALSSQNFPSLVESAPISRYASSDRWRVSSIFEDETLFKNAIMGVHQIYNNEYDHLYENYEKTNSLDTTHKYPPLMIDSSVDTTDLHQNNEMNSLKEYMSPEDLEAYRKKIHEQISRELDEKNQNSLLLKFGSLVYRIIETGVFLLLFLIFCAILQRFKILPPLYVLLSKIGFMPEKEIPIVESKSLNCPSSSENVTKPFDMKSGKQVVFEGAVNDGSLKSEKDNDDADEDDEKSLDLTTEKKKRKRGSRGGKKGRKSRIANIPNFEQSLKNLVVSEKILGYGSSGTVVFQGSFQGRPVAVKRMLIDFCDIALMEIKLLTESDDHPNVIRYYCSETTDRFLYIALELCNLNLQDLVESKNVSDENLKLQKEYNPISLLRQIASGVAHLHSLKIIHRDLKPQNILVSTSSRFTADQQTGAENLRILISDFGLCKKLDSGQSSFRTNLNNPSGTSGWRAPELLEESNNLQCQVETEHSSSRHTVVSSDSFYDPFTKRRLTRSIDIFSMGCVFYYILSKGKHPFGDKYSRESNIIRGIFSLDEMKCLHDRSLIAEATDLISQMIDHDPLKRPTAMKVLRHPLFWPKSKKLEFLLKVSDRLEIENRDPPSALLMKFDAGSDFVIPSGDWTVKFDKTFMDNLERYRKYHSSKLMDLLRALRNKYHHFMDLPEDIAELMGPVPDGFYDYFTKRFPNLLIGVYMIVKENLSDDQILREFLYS
# yIre1 = target: T2, yIre1 (Saccharomyces cerevisiae, UniProt P32361); assay: RNase cleavage assay (yIre1 activation); format: biochemical, yeast; details: yIre1 RNA cleavage, 30° C., 2 mM ADP; Control (no inhibitor) 0.000504
# T2 sequence (P32361 19-1115): T1 sequence (P32361 19-1115)
# Description: RNA cleavage reactions were conducted at 30° C. in buffer containing 20 mM HEPES (pH 7.5), 70 mM NaCl, 2 mM ADP (pH 7.0), 2 mM Mg(OAc)2, 5 mM DTT, 5% glycerol, less than 1 nM ^32p-labeled RNA substrate, and 3 nM-[…] Ire1. Reaction solutions and buffers were designed using Biochem Lab Solutions 3.5. Reactions were prepared such that 1 μl of RNA was added to 9 μl of pre-warmed reaction mixture containing all components except RNA. Typically, 3-10 minute time courses were collected starting from 5 seconds for the first time point. At time intervals, 1 μl of solution was withdrawn from each reaction and mixed with 6 μl stop solution containing 10 M urea, 0.1% SDS, 0.1 mM EDTA, 0.05% xylene cyanol, and 0.05% bromophenol blue. The samples were separated by a denaturing 10% PAGE and exposed on a phosphor storage screen. The screens were scanned on a Storm or a Typhoon instrument and quantified using ImageQuant 5.0 or GelQuant.NET 1.4 programs. The data were plotted and fit in SigmaPlot 6.0.
# [2] = system: Ire1 (XBP-1 YFP reporter in IMR90 cells); assay: Cell-based IRE1 inhibition assay with human fibroblasts (IMR90), XBP-1 YFP reporter; details: compound 2 uM, 8 hrs
# Description: FIG. 6 depicts histogram results of cell-based Ire1 inhibition assay employing IMR90 human diploid fibroblastic cell line. […] Induction of XBP-1 YFP reporter was assayed by fluorescence microscopy. See Example 6. Test compounds (left to right): DMSO; Tg; bortezomib; MG132; Irestatin; AD71c; AD73c; AD58; AD59. Ordinate: relative fluorescence (proportional to Ire1 activity.)
# A cell-based assay of Ire1 inhibition was conducted on human diploid fibroblastic cells (IMR90) expressing an XBP-1 YFP (yellow fluorescent protein) reporter. The effect of test compound or control on UPR induction was assayed by fluorescence microscopy to measure the fluorescence of YFP expressed in a Ire1-dependent manner. The XBP1-YFP reporter only produces YFP after a frameshift produced by splicing of its intron by activated IRE1. As known in the art, higher fluorescence intensity means higher Ire1 and UPR activity. Conversely, lower fluorescence intensity means inhibitions of Ire1 and UPR.
# IMR90 stable retroviral transductants expressing an XBP-1 YTP reporter were plated in a 96 well clear bottom plate and allowed to recover overnight (80% confluency). […] Induction of the XBP1-YFP reported was assayed by fluorescence microscopy (GE Healthcare IN Cell Analyzer 2000). The number of YFP cells and the total number of cells, as judged by nuclear staining (Hoechst) were counted in each well. […]
# hIre1 = hIre1 (Homo sapiens, UniProt O75460); assay: Titrations of Ire1 inhibitors to measure Ki using 1 μM hIre1; format: biochemical; details: 1 μM hIre1, 5′-32p-HP21, 30° C.
# Chain of hIre1 (O75460 19-977): as the sequence (O75460 19-977) above
# Description: Recombinant human Ire1-alpha (1 μM f/c) was mixed with reaction buffer, inhibitor solution in DMSO, and ^32P-labeled RNA substrate having sequence 5′-UGCACCUCUGCAGCAGGUGCA (SEQ ID NO:1). Reactions were conducted at 30° C. and initiated by adding the RNA to reaction pre-mix containing all the components minus the RNA. The final reaction contained: 20 mM HEPES pH 7, 70 mM NaCl, 2 mM MgCl2, 5% glycerol, 4 mM DTT, 10% DMSO, 1 μM Ire1 and <1 nM 32P-labeled RNA. (The reaction mixture may be modified by using different components or concentrations, different RNA substrate, or different Ire1 protein construct.)
# At time intervals (0 seconds, ˜10 seconds, ˜30 seconds, and ˜3 minutes), 1 μl aliquots of reaction mixture were taken and quenched in 10 M Urea, 0.1% SDS. Samples were analyzed by denaturing polyacrylamide gel electrophoresis and quantified using Typhoon phosphorImager.
# Inhibition was measured by the extent of RNA cleavage slowdown in the presence of inhibitor (0.3-100 μM) compared to reaction containing no inhibitors.
# [3] = system: Ire1 (XBP-1 luciferase reporter in MEFS); assay: Cell-based IRE1 inhibition assay with mouse embryonic fibroblasts, XBP-1 luciferase reporter; details: compound 5 uM, 8 hrs
# Description: FIG. 5 depicts histogram results of cell-based Ire1 inhibition assay in mouse embryonic fibroblasts (MEFS). Primary MEFS isolated from a transgenic mouse expressing an XBP1 luciferase reporter were incubated with either thapsigargin (Tg) or tunicamycin (Tm) in the absence or presence of test compound or control. See Example 5. Treatment order in histogram (left to right): no compound, AD73c at 5 uM, mitoxan (10 uM). Incubation conditions (left to right): DMSO, Tg (600 nM), Tm (2.6 ug/mL). Legend: RL: relative luminosity (arbitrary units); DMSO (no fill); Tg (diagonal stripe); Mitoxan (diamond fill).
# A cell-based assay of Ire1 inhibition was conducted on mouse embryonic fibroblasts (MEFS) isolated from a transgenic mouse expressing an XBP-1 luciferase reporter (Riken Research, Japan). The XBP-1 luciferase reporter produces a frameshift and production of luciferase only after splicing of the intron by activated IRE1. […]
# Primary MEFs expressing an XBP1 luciferase reporter were plated in a 96 well white plate and allowed to recover overnight (80% confluency). […] Luciferase activity was measured by the additional of 50 uL of One-Glo™ Luciferase Assay System (Promega), and the relative luminescence was quantitated using a luminometer (Analyst).
# As depicted in the histogram of FIG. 5, the luminescence of luciferase expressed in Ire1-dependent assay was measured to assess Ire1 and UPR activity. […]
SMILES,Ire1 activity with human Ire1 alpha [1],Ire1 activity with yeast Ire1 (yeast Ire1),Ire1 activity [1],also measured
"CC(C)n1nc(Cc2cccc(NC(=O)Nc3cccc(C(F)(F)F)c3)c2)c2c(N)ncnc21 [AD36, 1-(3-((4-amino-1-isopropyl-1H-pyrazolo[3,4-d]pyrimidin-3-yl)methyl)phenyl)-3-(3-(trifluoromethyl)phenyl)urea]",0.09575,1.05E−03,–,Ire1 activity (yIre1): 0.000322
CC(C)n1nc(-c2ccc(NC(=O)Nc3ccccc3)cc2)c2c(N)ncnc21 [AD58],–,–,–,inhibition of UPR (XBP-1 YFP reporter) induced by Tg [2]: inhibit UPR
Nc1ncnc2c1c(-c1ccc(NC(=O)c3cccc(C(F)(F)F)c3)cc1)nn2CCCO [AD65],–,–,–,pKi (hIre1): ~4.52
Nc1ncnc2c1c(-c1ccc(NC(=O)Nc3cccc(C(F)(F)F)c3)cc1)nn2[C@@H]1CCN(C(=O)Nc2cccc(C(F)(F)F)c2)C1 [AD73c],–,–,2.9310e−4,rate suppression (hIre1): 100 fold; inhibition of XBP1 luciferase induction by thapsigargin (Tg) ([3]; Tg 600 nM): strongly inhibit; inhibition of XBP1 luciferase induction by tunicamycin (Tm) ([3]; Tm 2.5 ug/mL): strongly inhibit
"Nc1ncnc2c1c(Cc1cccc(NC(=O)c3cccc(C(F)(F)F)c3)c1)nn2Cc1ccccc1 [BB5, N-(3-((4-amino-1-benzyl-1H-pyrazolo[3,4-d]pyrimidin-3-yl)methyl)phenyl)-3-(trifluoromethyl)benzamide]",0.1247,5.00E−03,–,–
"Nc1ncnc2c1c(Cc1cccc(NC(=O)Nc3cccc(C(F)(F)F)c3)c1)nn2Cc1ccccc1 [BB6, 1-(3-((4-amino-1-benzyl-1H-pyrazolo[3,4-d]pyrimidin-3-yl)methyl)phenyl)-3-(3-(trifluoromethyl)phenyl)urea]",0.1506,3.00E−03,–,–
"CNC(=O)c1cc(Oc2ccc(NC(=O)Nc3ccc(Cl)c(C(F)(F)F)c3)cc2)ccn1 [Sorafenib, reference compound]",0.03645,0.0683,–,–

# The next lines start with results.
Ire1 activity with human Ire1 alpha [1],Ire1 activity with yeast Ire1 (yeast Ire1),Ire1 activity [1],SMILES,also measured
0.05508,3.26E−03,–,"CC(C)n1nc(-c2ccc(NC(=O)Nc3cccc(C(F)(F)F)c3)cc2)c2c(N)ncnc21 [AD57, 1-(4-(4-amino-1-isopropyl-1H-pyrazolo[3,4-d]pyrimidin-3-yl)phenyl)-3-(3-(trifluoromethyl)phenyl)urea]",–
0.02258,2.42E−03,4.0180e−3,"Nc1ncnc2c1c(-c1ccc(NC(=O)Nc3cccc(C(F)(F)F)c3)cc1)nn2C1CCCC1 [AD60, 1-(4-(4-amino-1-cyclopentyl-1H-pyrazolo[3,4-d]pyrimidin-3-yl)phenyl)-3-(3-(trifluoromethyl)phenyl)urea]",inhibition of hIre1 (in words) [1]: can inhibit; inhibition of yIre1 (in words) (yeast Ire1): can inhibit; Ire1 activity (yIre1): 4.04E−05
–,–,6.9280e−4,Nc1ncnc2c1c(-c1ccc(NC(=O)Nc3cccc(C(F)(F)F)c3)cc1)nn2CCCO [AD64],pKi (hIre1): ~6.00
